Results on 19 molecules are retold here after patent publication US20210355106A1, “NEW AMINO-PYRIMIDONYL-PIPERIDINYL DERIVATIVES, A PROCESS FOR THEIR PREPARATION AND PHARMACEUTICAL COMPOSITIONS CONTAINING THEM” (LES LABORATOIRES SERVIER, priority 2018, published 2021).

One test addresses T1, USP7 (Homo sapiens, UniProt Q93009, C315A).
T1 construct: 0.25 nM His-His-USP7 (aa208-560, |C315A|) was incubated with compound; His-His (N)
Briefly: Inhibition of USP7 by Fluorescence Intensity (FLINT) readings, Ubiquitin-Rhodamine-110 substrate. Type of test: biochemical. The following applies: 0.25 nM His-His-USP7 (aa208-560), 60 minutes at 30° C. preincubation; Ki determined from IC50 according to Cer et al. In outline:
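His-tagged USP7 (aa208-560, C315A), 0.25 nM, preincubated with compound 60 min at 30 °C in 100 mM Bicine pH 8.0, 0.01% Triton X-100, 1 mM TCEP, 10% DMSO. Ubiquitin-Rhodamine-110 (50 nM or 4 μM) added; kinetic fluorescence (Ex 485/Em 535 nm) over 21 min; IC50 from 11-point curves, Ki derived from IC50.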

In test [1] the test system is Z138 mantle cell lymphoma tumour cell lines. Briefly: In vitro cytotoxicity, MTT assay. The class given is cell-based. To be noted: Homo sapiens, Z-138; Z138 cells, exposed to the test compounds for 96 hours. In outline:
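Z138 cells exposed to compounds for 96 hours, then MTT added for 4 hours. Formazan absorbance at 540 nm serves as the measure of viable cell number.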
Background: Tetrazolium dyes change colour on reduction, which living cells bring about.

SMILES strings stand for the structures.

T1 sequence (Q93009 208-560 C315A): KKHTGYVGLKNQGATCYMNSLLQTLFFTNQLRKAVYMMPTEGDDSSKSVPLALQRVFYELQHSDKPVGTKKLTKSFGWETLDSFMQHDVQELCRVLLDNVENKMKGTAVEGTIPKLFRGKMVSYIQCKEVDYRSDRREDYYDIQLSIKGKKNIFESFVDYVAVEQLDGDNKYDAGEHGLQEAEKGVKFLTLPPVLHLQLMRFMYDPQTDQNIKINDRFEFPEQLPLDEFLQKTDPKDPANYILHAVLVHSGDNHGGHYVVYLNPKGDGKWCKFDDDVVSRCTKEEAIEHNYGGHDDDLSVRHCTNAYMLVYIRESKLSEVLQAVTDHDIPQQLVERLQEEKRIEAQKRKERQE

The Ki is a dissociation constant, usually derived from enzyme kinetics or from competition with a known ligand. A higher Ki goes with a looser hold on the target. As a reminder, the IC50 is the concentration that gives 50% inhibition. A high value points to lower potency. The molecule `Nc1c(Oc2ccc(F)cc2)ncn(C[C@@]2(O)CCN(C(=O)[C@@H]3CCN(Cc4ccnc(-c5ccccc5)n4)C[C@H]3c3ccccc3)CC2(F)F)c1=O` [Example 177, 5-amino-3-[[(4S)-3,3-difluoro-4-hydroxy-1-[(3R,4R)-3-phenyl-1-[(2-phenylpyrimidin-4-yl)methyl]piperidine-4-carbonyl]-4-piperidyl]methyl]-6-(4-fluorophenoxy)pyrimidin-4-one] gave a Ki on USP7 of 9.99 nM. It took 2.32 nM to reach half-maximal inhibition in test [1] (IC50).
On the same counts, the results for `COc1cc(Cl)cc(Oc2ncn(C[C@@]3(O)CCN(C(=O)[C@@H]4CCN(Cc5cnc(C)cn5)C[C@H]4c4ccccc4)CC3(F)F)c(=O)c2N)c1` [Example 178] are 70.1 nM and 31.8 nM.
`COc1cc(Oc2ncn(C[C@@]3(O)CCN(C(=O)[C@@H]4CCN(C(=O)c5sc(-c6ccc(C)nc6)nc5C)C[C@H]4c4ccccc4)CC3(F)F)c(=O)c2N)ccc1F` [Example 179] gave a Ki on USP7 of 5.58 nM. Besides, the IC50 in test [1] was 1.34 nM.
On the same counts, the results for `COc1cc(Oc2ncn(C[C@@]3(O)CCN(C(=O)[C@@H]4CCN(Cc5ccnc(C)n5)C[C@H]4c4ccccc4)CC3(F)F)c(=O)c2N)ccc1Cl` [Example 182] are 40.4 nM and 9.95 nM.
On the same counts, the results for `COc1cc(Oc2ncn(C[C@@]3(O)CCN(C(=O)[C@@H]4CCN(Cc5cnc(C)cn5)C[C@H]4c4ccccc4)CC3(F)F)c(=O)c2N)ccc1Cl` [Example 183, 5-amino-6-(4-chloro-3-methoxy-phenoxy)-3-[[(4S)-3,3-difluoro-4-hydroxy-1-[(3R,4R)-1-[(5-methylpyrazin-2-yl)methyl]-3-phenyl-piperidine-4-carbonyl]-4-piperidyl]methyl]pyrimidin-4-one] are 37 nM and 9.5 nM.
`COc1cc(Oc2ncn(C[C@@]3(O)CCN(C(=O)[C@@H]4CCN(C(=O)c5sc(-c6ccc(C)nc6)nc5C)C[C@H]4c4ccccc4)CC3(F)F)c(=O)c2N)ccc1Cl` [Example 184, 5-amino-6-(4-chloro-3-methoxy-phenoxy)-3-[[(4S)-3,3-difluoro-4-hydroxy-1-[(3R,4R)-1-[4-methyl-2-(6-methyl-3-pyridyl)thiazole-5-carbonyl]-3-phenyl-piperidine-4-carbonyl]-4-piperidyl]methyl]pyrimidin-4-one] yielded a Ki at USP7 of 7.28 nM. Further, in test [1], the IC50 stood at 3.96 nM.
On the same counts, the results for `Cc1ncc(-c2nc(C)c(C(=O)N3CC[C@@H](C(=O)N4CC[C@](O)(Cn5cnc(Oc6ccc(F)cc6)c(N)c5=O)C(F)(F)C4)[C@H](c4ccccc4)C3)s2)cc1C(F)(F)F` [Example 185, 5-amino-3-[[(4S)-3,3-difluoro-4-hydroxy-1-[(3R,4R)-1-[4-methyl-2-[6-methyl-5-(trifluoromethyl)-3-pyridyl]thiazole-5-carbonyl]-3-phenyl-piperidine-4-carbonyl]-4-piperidyl]methyl]-6-(4-fluorophenoxy)pyrimidin-4-one] are 13 nM and 7.65 nM.
On the same counts, the results for `COc1cc(Oc2ncn(C[C@@]3(O)CCN(C(=O)[C@@H]4CCN(Cc5ccnc(C)n5)C[C@H]4c4ccccc4)CC3(F)F)c(=O)c2N)ccc1C1CC1` [Example 188, 5-amino-6-(4-cyclopropyl-3-methoxy-phenoxy)-3-[[(4S)-3,3-difluoro-4-hydroxy-1-[(3R,4R)-1-[(2-methylpyrimidin-4-yl)methyl]-3-phenyl-piperidine-4-carbonyl]-4-piperidyl]methyl]pyrimidin-4-one] are 69.9 nM and 69 nM.
Consider `Cc1nc(C2CC(F)(F)C2)sc1C(=O)N1CC[C@@H](C(=O)N2CCC(O)(Cn3cnc(Oc4ccc(F)cc4)c(N)c3=O)CC2)[C@H](c2ccccc2)C1` [Example 189], for which the affinity at USP7 corresponds to a Ki of 11.1 nM. Besides, the 50% inhibitory concentration (IC50) in test [1] worked out at 6.34 nM.
On the same counts, the results for `Cc1nc(C2CC(F)(F)C2)sc1C(=O)N1CC[C@@H](C(=O)N2CC[C@](O)(Cn3cnc(Oc4ccc(F)cc4)c(N)c3=O)C(F)(F)C2)[C@H](c2ccccc2)C1` [Example 190] are 12.4 nM and 6.82 nM.
In the case of `Cc1nc(C2CCOCC2)sc1C(=O)N1CC[C@@H](C(=O)N2CCC(O)(Cn3cnc(Oc4ccc(F)cc4)c(N)c3=O)CC2)[C@H](c2ccccc2)C1` [Example 191, 5-amino-6-(4-fluorophenoxy)-3-[[4-hydroxy-1-[(3R,4R)-1-(4-methyl-2-tetrahydropyran-4-yl-thiazole-5-carbonyl)-3-phenyl-piperidine-4-carbonyl]-4-piperidyl]methyl]pyrimidin-4-one], on USP7, the Ki was 17.7 nM. The IC50 in test [1] is 20.1 nM.
`Cc1nc(C2CCOCC2)sc1C(=O)N1CC[C@@H](C(=O)N2CC[C@](O)(Cn3cnc(Oc4ccc(F)cc4)c(N)c3=O)C(F)(F)C2)[C@H](c2ccccc2)C1` [Example 192, 5-amino-3-[[(4S)-3,3-difluoro-4-hydroxy-1-[(3R,4R)-1-(4-methyl-2-tetrahydropyran-4-yl-thiazole-5-carbonyl)-3-phenyl-piperidine-4-carbonyl]-4-piperidyl]methyl]-6-(4-fluorophenoxy)pyrimidin-4-one] had a Ki at USP7 of 8.8 nM. Moreover, the IC50 in test [1] turned out to be 8.48 nM.
On the same counts, the results for `Cc1nc(C2CCCN(C)C2)sc1C(=O)N1CC[C@@H](C(=O)N2CCC(O)(Cn3cnc(Oc4ccc(F)cc4)c(N)c3=O)CC2)[C@H](c2ccccc2)C1` (stereo partly drawn) [Example 199, 5-amino-6-(4-fluorophenoxy)-3-[[4-hydroxy-1-[(3R,4R)-1-[4-methyl-2-(1-methyl-3-piperidyl)thiazole-5′-carbonyl]-3-phenyl-piperidine-4-carbonyl]-4-piperidyl]methyl]pyrimidin-4-one] are 9.23 nM and 34.1 nM.
On the same counts, the results for `Cc1nccc(CN2CC[C@@H](C(=O)N3CCC(O)(Cn4cnc(Oc5ccc(CO)cc5)c(N)c4=O)CC3)[C@H](c3ccccc3)C2)n1` [Example 200] are 30 nM and 106 nM.
On the same counts, the results for `Cc1cnc(CN2CC[C@@H](C(=O)N3CC[C@](O)(Cn4cnc(Oc5ccc(F)cc5)c(N)c4=O)C(F)(F)C3)[C@H](c3ccccc3)C2)cn1` [Example 201] are 23.9 nM and 7.5 nM.
Consider `Nc1c(Oc2ccc(F)cc2)ncn(C[C@@]2(O)CCN(C(=O)[C@@H]3CCN(Cc4cnccn4)C[C@H]3c3ccccc3)CC2(F)F)c1=O` [Example 202, 5-amino-3-[[(4S)-3,3-difluoro-4-hydroxy-1-[(3R,4R)-3-phenyl-1-(pyrazin-2-ylmethyl)piperidine-4-carbonyl]-4-piperidyl]methyl]-6-(4-fluorophenoxy)pyrimidin-4-one], for which, at USP7, the inhibition constant Ki was 21.8 nM. The molecule also showed an IC50 in test [1] of 11.7 nM.
At USP7, `Nc1c(Oc2ccc(F)cc2)ncn(C[C@@]2(O)CCN(C(=O)[C@@H]3CCN(Cc4cccnn4)C[C@H]3c3ccccc3)CC2(F)F)c1=O` [Example 203] came in with a Ki of 47.1 nM. Also, the midpoint of inhibition in test [1], the IC50, lay at 33 nM.
On the same counts, the results for `Nc1c(Oc2ccc(F)cc2)ncn(C[C@@]2(O)CCN(C(=O)[C@@H]3CCN(Cc4ncccn4)C[C@H]3c3ccccc3)CC2(F)F)c1=O` [Example 204] are 36.5 nM and 26.9 nM.
On the same counts, the results for `Cc1ccnc(CN2CC[C@@H](C(=O)N3CC[C@](O)(Cn4cnc(Oc5ccc(F)cc5)c(N)c4=O)C(F)(F)C3)[C@H](c3ccccc3)C2)n1` [Example 205] are 35.8 nM and 23.5 nM.
